Experimental data as given in ChEMBL document CHEMBL1201862, “PubChem BioAssay data set” (2004).
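96-well plates; 48 h exposure; 5 concentrations. Endpoints by linear interpolation between flanking doses. Not reached: highest tested concentration assigned. At the GI50, growth is halved.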 Activity calls are given as the source filed them. Rule as the data show it: active = GI50 up to about 1.1 µM and inactive = higher.

Columns and labels:
Experiment in all cases: NCI anticancer screen, dose series, 48 h
SF-268 = tested on: SF-268
SK-MEL-28 = tested on: SK-MEL-28
786-0 = tested on: 786-0
SNB-19 = tested on: SNB-19
RPMI-8226 = tested on: RPMI-8226
HCC 2998 = tested on: HCC 2998
M19-MEL = tested on: M19-MEL
EKVX = tested on: EKVX
HL-60 = tested on: HL-60
K562 = tested on: K562
SR = tested on: SR
HCT-116 = tested on: HCT-116
LOX IMVI = tested on: LOX IMVI
KM12 = tested on: KM12
SF-295 = tested on: SF-295
NCI-H226 = tested on: NCI-H226
HCT-15 = tested on: HCT-15
IGROV-1 = tested on: IGROV-1
LXFL 529 = tested on: LXFL 529
Malme-3M = tested on: Malme-3M
SW-620 = tested on: SW-620
UACC-62 = tested on: UACC-62
UO-31 = tested on: UO-31
UACC-257 = tested on: UACC-257
NCI-H460 = tested on: NCI-H460
XF498 = tested on: XF498
NCI-H23 = tested on: NCI-H23
DMS-273 = tested on: DMS-273
NCI-H522 = tested on: NCI-H522
CCRF-CEM = tested on: CCRF-CEM
CAKI-1 = tested on: CAKI-1
SN12C = tested on: SN12C
DMS-114 = tested on: DMS-114
TK-10 = tested on: TK-10
OVCAR-8 = tested on: OVCAR-8
HT-29 = tested on: HT-29
SNB-78 = tested on: SNB-78
U-251 = tested on: U-251
A549 = tested on: A549
SK-OV-3 = tested on: SK-OV-3
DLD-1 = tested on: DLD-1
OVCAR-5 = tested on: OVCAR-5
OVCAR-3 = tested on: OVCAR-3
HOP-62 = tested on: HOP-62
RXF 393 = tested on: RXF 393
COLO 205 = tested on: COLO 205
MOLT-4 = tested on: MOLT-4
ACHN = tested on: ACHN
M14 = tested on: M14
SNB-75 = tested on: SNB-75
KM-20L2 = tested on: KM-20L2
SK-MEL-2 = tested on: SK-MEL-2
HOP-18 = tested on: HOP-18
OVCAR-4 = tested on: OVCAR-4
NCI/ADR-RES = tested on: NCI/ADR-RES
A498 = tested on: A498
SF-539 = tested on: SF-539
MCF7 = tested on: MCF7
SK-MEL-5 = tested on: SK-MEL-5

## COCOC1CCCC[C@@]1(OCCOCCO[C@@]1(c2ccccc2)CCCC[C@H]1OCOC)c1ccccc1 (stereo partly specified)
SF-268
  GI50: > 100 µM (inactive)
SK-MEL-28
  GI50: > 100 µM (inactive)
786-0
  GI50: 46.6 µM (inactive)
SNB-19
  GI50: > 100 µM (inactive)
RPMI-8226
  GI50: > 100 µM (inactive)
HCC 2998
  GI50: > 100 µM (inactive)
M19-MEL
  GI50: > 100 µM (inactive)
EKVX
  GI50: 37.8 µM (inactive)
HL-60
  GI50: > 100 µM (inactive)
K562
  GI50: > 100 µM (inactive)
SR
  GI50: > 100 µM (inactive)
HCT-116
  GI50: > 100 µM (inactive)
LOX IMVI
  GI50: > 100 µM (inactive)
KM12
  GI50: > 100 µM (inactive)
SF-295
  GI50: 32.4 µM (inactive)
NCI-H226
  GI50: > 100 µM (inactive)
HCT-15
  GI50: > 10000 nM
IGROV-1
  GI50: > 100 µM (inactive)
LXFL 529
  GI50: > 100 µM (inactive)
Malme-3M
  GI50: > 100 µM (inactive)
SW-620
  GI50: > 100 µM (inactive)
UACC-62
  GI50: > 100 µM (inactive)
UO-31
  GI50: > 100 µM (inactive)
UACC-257
  GI50: > 100 µM (inactive)
NCI-H460
  GI50: > 100 µM (inactive)
XF498
  GI50: > 100 µM (inactive)
NCI-H23
  GI50: > 100 µM (inactive)
DMS-273
  GI50: > 100 µM (inactive)
NCI-H522
  GI50: > 100 µM (inactive)
CCRF-CEM
  GI50: > 100 µM (inactive)
CAKI-1
  GI50: 41.1 µM (inactive)
SN12C
  GI50: > 100 µM (inactive)
DMS-114
  GI50: > 100 µM (inactive)
TK-10
  GI50: 70.6 µM (inactive)
OVCAR-8
  GI50: > 100 µM (inactive)
HT-29
  GI50: > 100 µM (inactive)
SNB-78
  GI50: 55.3 µM (inactive)
U-251
  GI50: > 100 µM (inactive)
A549
  GI50: 99.5 µM (inactive)
SK-OV-3
  GI50: 67.9 µM (inactive)
DLD-1
  GI50: > 100 µM (inactive)
OVCAR-5
  GI50: > 100 µM (inactive)
OVCAR-3
  GI50: > 100 µM (inactive)
HOP-62
  GI50: > 100 µM (inactive)
RXF 393
  GI50: 23.1 µM (inactive)
COLO 205
  GI50: > 100 µM (inactive)
MOLT-4
  GI50: > 10 µM (inactive)
ACHN
  GI50: 87.7 µM (inactive)
M14
  GI50: 44.7 µM (inactive)
SNB-75
  GI50: 24.4 µM (inactive)
KM-20L2
  GI50: > 100 µM (inactive)
SK-MEL-2
  GI50: > 100 µM (inactive)
HOP-18
  GI50: > 100 µM (inactive)
OVCAR-4
  GI50: > 100 µM (inactive)

## Cc1c2ccncc2c(C)c2c1[nH]c1ccc(Cl)cc12
SK-MEL-28
  GI50: 5.69 µM (inactive)
786-0
  GI50: 1.07 µM (active)
SNB-19
  GI50: 2.35 µM (inactive)
RPMI-8226
  GI50: 1.59 µM (inactive)
HCC 2998
  GI50: 7.76 µM (inactive)
M19-MEL
  GI50: 2.56 µM (inactive)
EKVX
  GI50: 4.84 µM (inactive)
HL-60
  GI50: 2.11 µM (inactive)
K562
  GI50: 1.62 µM (inactive)
HCT-116
  GI50: 1.07 µM (active)
LOX IMVI
  GI50: 1.55 µM (inactive)
KM12
  GI50: 1.86 µM (inactive)
NCI-H226
  GI50: 3.17 µM (inactive)
NCI/ADR-RES
  GI50: 1.22 µM (inactive)
HCT-15
  GI50: 1750 nM
IGROV-1
  GI50: 2.86 µM (inactive)
A498
  GI50: 4.46 µM (inactive)
LXFL 529
  GI50: 1.84 µM (inactive)
SF-539
  GI50: 2.44 µM (inactive)
Malme-3M
  GI50: 5.68 µM (inactive)
SW-620
  GI50: 1.52 µM (inactive)
UACC-62
  GI50: 3.37 µM (inactive)
UO-31
  GI50: 3.56 µM (inactive)
NCI-H460
  GI50: 1.54 µM (inactive)
XF498
  GI50: 4.31 µM (inactive)
NCI-H23
  GI50: 3.56 µM (inactive)
DMS-273
  GI50: 1.59 µM (inactive)
NCI-H522
  GI50: 2.36 µM (inactive)
CCRF-CEM
  GI50: 1.36 µM (inactive)
SN12C
  GI50: 3.41 µM (inactive)
DMS-114
  GI50: 2.07 µM (inactive)
TK-10
  GI50: 6.07 µM (inactive)
OVCAR-8
  GI50: 1.22 µM (inactive)
HT-29
  GI50: 2.2 µM (inactive)
SNB-78
  GI50: 3.94 µM (inactive)
U-251
  GI50: 5.13 µM (inactive)
MCF7
  GI50: 2.17 µM (inactive)
SK-OV-3
  GI50: 7.19 µM (inactive)
DLD-1
  GI50: 2.15 µM (inactive)
OVCAR-5
  GI50: 7.05 µM (inactive)
OVCAR-3
  GI50: 2.2 µM (inactive)
SK-MEL-5
  GI50: 4.75 µM (inactive)
HOP-62
  GI50: 3.85 µM (inactive)
RXF 393
  GI50: 4.58 µM (inactive)
COLO 205
  GI50: 2.16 µM (inactive)
ACHN
  GI50: 1.26 µM (inactive)
M14
  GI50: 4.57 µM (inactive)
SNB-75
  GI50: 3.55 µM (inactive)
KM-20L2
  GI50: 2.56 µM (inactive)
SK-MEL-2
  GI50: 3.51 µM (inactive)
HOP-18
  GI50: 2.52 µM (inactive)
OVCAR-4
  GI50: 2.11 µM (inactive)
